Seven compounds from patent US8030478B2, “Method for nucleic acid replication and novel artificial base pairs” (priority 2005, dated 2011) can be followed below.

Test [1] deals with T1, Klenow fragment lacking exonuclease activity (KF exo−) (Escherichia coli, UniProt P00582, D355A/E357A).
T1 construct: enzyme solution of the Klenow fragment lacking exonuclease activity (KF exo^−, Amersham USB); purchased Amersham USB
Format: biochemical, E. coli. As to conditions: for Efficiency (Vmax/KM) / Km / Vmax: 37° C. Here is the method:
The single nucleotide insertion experiment was performed as described in documents (Non-patent Documents 30-32). A primer (20-mer) labeled with 6-carboxylfluorescein at the 5′-end was annealed with template DNA (35-mer) by heating at 95° C. and slow cooling to 4° C. in 100 mM Tris-HCl (pH 7.5) buffer containing 20 mM MgCl2, 2 mM DTT and 0.1 mg/ml bovine serum albumin. The primer-template duplex solution (10 μM, 5 μl) was mixed with 2 μl enzyme solution of the Klenow fragment lacking exonuclease activity (KF exo^−, Amersham USB). After the mixture was incubated for 2 minutes, each dNTP solution (3 μl) was added to this solution to start the reaction at 37° C. The amount of the enzyme used (5-50 nM), the reaction time (1-35 minutes) and the gradient concentration of each dNTP (0.3-1500 μM) were adjusted to ensure conditions giving 25% or less products. The reaction was stopped with 10 μl stop solution (95% formamide and 20 mM EDTA), and the mixture was immediately heated at 75° C. for 3 minutes. The diluted products were analyzed in an automated ABI377 DNA sequencer equipped with GeneScan software (version 3.0) (Non-patent Document 32). The relative velocity (v0) was calculated by dividing the extent of reaction by the reaction time, and then normalized to the enzyme concentration (20 nM) for the various enzyme concentrations used. Kinetic parameters (KM and Vmax) were obtained from Hanes-Woolf plots of [dNTP]/v0 against [dNTP].
Each parameter was averaged from 3 to 8 data sets.

Test [2] deals with Klenow fragment (KF exo+ / KF exo−) (Escherichia coli, UniProt P00582). As to conditions: dPaTP and natural substrates in the presence of the named substrate (0.5 or 1 molar equivalent of dPaTP); FIG. 2d. The protocol:
(§1) [FIG. 2d] FIGS. 2a to 2e show single nucleotide insertion and primer extension experiments with an unnatural base pair system based on Ds-Pa base pairing.
(§2) [FIG. 2e] FIGS. 2a to 2e show single nucleotide insertion and primer extension experiments with an unnatural base pair system based on Ds-Pa base pairing.
(§3) A 5′-^32P-labeled primer (23-mer) and template DNA (35-mer) were annealed into duplex form in 20 mM Tris-HCl (pH 7.5) buffer containing 14 mM MgCl2 and 0.2 mM DTT. The duplex solution (400 nM, 5 μl) was mixed with each 5× dNTP solution (2 μl) on ice, followed by addition of 3 μl enzyme solution containing KF exo^− (1 unit) or KF exo^+ (1 unit) (TAKARA) to start the reaction. After the reaction solution was incubated at 37° C. for 3 or 5 minutes, a dye solution (10 μl) containing 89 mM Tris-borate, 2 mM EDTA, 10 M urea and 0.05% BPB was added to stop the reaction. […] The products on the gel were analyzed with a bio-imaging analyzer (model BAS2500, Fuji).

Test [3] relates to Klenow fragment (KF exo+ / KF exo−). The note with it: FIG. 2e; for primer extension after incorporation of the substrate: dDsTPN opposite template Pa, dATPN opposite template T, Lanes 2 and 14. Here is the method:
as §1, §2, §3

Another test deals with T7 RNA polymerase (Escherichia phage T7, UniProt P00573). The note with it: 1 mM substrate, 1 mM NTPs, template DNA containing Ds, 37° C., 3 hours; FIG. 49. The protocol:
More specifically, experimental procedures as shown below were used. […] After reaction at 37° C. for 3 hours, 10 M urea (20 μL) was added to this solution to stop the reaction.

Test [4] addresses Klenow fragment lacking 3′-5′ exonuclease activity (Escherichia coli, UniProt P00582, D355A/E357A). As to conditions: template DNA (55-mer) containing Ds, 10 μM substrate, 37° C., 5 minutes; FIG. 48. The protocol:
More specifically, experimental procedures as shown below were used. […] The reaction was performed using 200 nM Template-Primer, 100 μM or 200 μM dNTPs (N=A, G, C, T), 10 μM NH2-hx-dPnTP or FAM-hx-dPnTP, and 0.1 U/μl Klenow fragment (GE Health Care) in 50 mM Tris-HCl (pH 7.5), 10 mM MgCl2, 1 mM DTT, 0.05 mg/ml BSA. After reaction at 37° C. for 5 minutes, 10 M urea (20 μl) was added to this solution to stop the reaction. […] Bands of the reaction products were detected with a fluorescence image analyzer (Molecular Imager, Bio-Rad, FAM detection mode).

One may read the Km as the substrate concentration at which the rate is half of its maximum.

Where two headings read alike, the source gives them in different places.

T1 sequence (P00582 324-928 D355A/E357A): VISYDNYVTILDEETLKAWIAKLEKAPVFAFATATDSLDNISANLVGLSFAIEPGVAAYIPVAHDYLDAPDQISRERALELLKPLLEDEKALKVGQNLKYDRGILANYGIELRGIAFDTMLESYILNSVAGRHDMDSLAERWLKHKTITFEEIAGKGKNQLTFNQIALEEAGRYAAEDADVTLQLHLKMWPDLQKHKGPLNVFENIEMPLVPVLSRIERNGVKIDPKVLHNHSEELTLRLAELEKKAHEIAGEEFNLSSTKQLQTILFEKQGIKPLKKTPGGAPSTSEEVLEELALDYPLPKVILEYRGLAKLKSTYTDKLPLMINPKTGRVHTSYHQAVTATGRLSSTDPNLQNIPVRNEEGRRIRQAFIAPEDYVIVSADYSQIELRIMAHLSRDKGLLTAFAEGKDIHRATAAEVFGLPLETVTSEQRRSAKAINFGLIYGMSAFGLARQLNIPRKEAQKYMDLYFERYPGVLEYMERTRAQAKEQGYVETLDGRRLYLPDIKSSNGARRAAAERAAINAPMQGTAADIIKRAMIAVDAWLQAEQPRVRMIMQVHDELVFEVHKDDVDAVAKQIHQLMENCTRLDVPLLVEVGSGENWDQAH
Sequence of T7 RNA polymerase (P00573 whole entry): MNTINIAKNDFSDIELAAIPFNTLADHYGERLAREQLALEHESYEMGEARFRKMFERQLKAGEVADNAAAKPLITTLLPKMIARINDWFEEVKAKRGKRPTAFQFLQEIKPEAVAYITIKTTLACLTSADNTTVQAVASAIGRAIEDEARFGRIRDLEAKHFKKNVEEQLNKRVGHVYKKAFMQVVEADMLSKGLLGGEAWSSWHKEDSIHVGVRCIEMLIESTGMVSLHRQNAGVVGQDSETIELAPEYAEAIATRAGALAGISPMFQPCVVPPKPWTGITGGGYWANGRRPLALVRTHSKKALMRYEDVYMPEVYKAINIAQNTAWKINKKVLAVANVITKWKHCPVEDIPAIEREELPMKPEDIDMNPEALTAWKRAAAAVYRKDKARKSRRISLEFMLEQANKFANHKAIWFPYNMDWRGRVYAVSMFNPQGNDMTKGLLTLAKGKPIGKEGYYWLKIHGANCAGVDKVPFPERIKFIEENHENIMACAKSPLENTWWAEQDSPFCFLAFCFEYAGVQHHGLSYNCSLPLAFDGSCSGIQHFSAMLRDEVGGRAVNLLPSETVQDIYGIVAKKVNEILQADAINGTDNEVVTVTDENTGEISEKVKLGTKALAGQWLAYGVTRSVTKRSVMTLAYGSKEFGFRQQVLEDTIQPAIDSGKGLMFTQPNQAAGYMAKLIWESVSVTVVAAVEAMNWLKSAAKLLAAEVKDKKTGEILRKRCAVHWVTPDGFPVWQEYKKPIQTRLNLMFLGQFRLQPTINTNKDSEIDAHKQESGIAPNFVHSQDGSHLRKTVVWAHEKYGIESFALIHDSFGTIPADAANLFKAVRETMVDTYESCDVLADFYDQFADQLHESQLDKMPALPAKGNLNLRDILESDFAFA
Sequence of Klenow fragment (KF exo+ / KF exo−) (Escherichia coli, UniProt P00582) (P00582 324-928): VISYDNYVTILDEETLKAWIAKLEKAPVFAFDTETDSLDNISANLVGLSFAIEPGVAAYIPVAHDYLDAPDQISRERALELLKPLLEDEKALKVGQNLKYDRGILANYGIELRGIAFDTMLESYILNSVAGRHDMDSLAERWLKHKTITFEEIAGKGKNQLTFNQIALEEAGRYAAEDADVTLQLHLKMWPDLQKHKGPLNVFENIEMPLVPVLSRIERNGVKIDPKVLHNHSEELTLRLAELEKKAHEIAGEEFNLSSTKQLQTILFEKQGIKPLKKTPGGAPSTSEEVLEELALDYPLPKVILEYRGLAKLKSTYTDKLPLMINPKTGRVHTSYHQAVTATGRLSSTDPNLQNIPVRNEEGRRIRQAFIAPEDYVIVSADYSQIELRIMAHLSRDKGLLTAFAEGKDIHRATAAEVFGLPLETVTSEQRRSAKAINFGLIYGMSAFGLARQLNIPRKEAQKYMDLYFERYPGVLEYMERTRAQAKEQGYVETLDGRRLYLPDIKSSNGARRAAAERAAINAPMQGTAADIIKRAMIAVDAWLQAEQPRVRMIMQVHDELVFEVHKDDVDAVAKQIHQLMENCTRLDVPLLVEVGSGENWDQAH
Sequence of Klenow fragment lacking 3′-5′ exonuclease activity (P00582 324-928 D355A/E357A): as the sequence (P00582 324-928 D355A/E357A) above

In the case of `NP(=O)(O)OP(=O)(O)OP(=O)(O)OC[C@H]1O[C@@H](n2cnc3c(-c4cccs4)ccnc32)C[C@@H]1O` [dDsTPN, 7-(2-Thienyl)-3-(2-deoxy-β-D-ribofuranosyl)-3H-imidazo[4,5-b]pyridine 5′-γ-amidotriphosphate], the “incorporation efficiency opposite template Pa relative to that of dATPN opposite template Pa” value in test [1] (KF exo−, template Pa) is 37 fold. Further, the “Efficiency (Vmax/KM)” value in test [1] (template (N) = A, temp35N-2) is 1.9 × 10^3 % min^−1M^−1; in test [1] (template (N) = C, temp35N-2) it was 1.5 × 10^3 % min^−1M^−1; in test [1] (template (N) = Ds, temp35N-1) it was 9.9 × 10^3 % min^−1M^−1; in test [1] (template (N) = G, temp35N-2), 1.9 × 10^3 % min^−1M^−1; in test [1] (template (N) = Pa, temp35N-2), 6.7 × 10^4 % min^−1M^−1; in test [1] (template (N) = Pa′, temp35N-2), 5.7 × 10^4 % min^−1M^−1. Also, the “Efficiency (Vmax/KM)” value in test [1] (template (N) = T, temp35N-2) was 3.5 × 10^3 % min^−1M^−1. Also, the Km is 270 µM in test [1] (template (N) = A, temp35N-2); 440 µM in test [1] (template (N) = C, temp35N-2); 79 µM in test [1] (template (N) = Ds, temp35N-1); 300 µM in test [1] (template (N) = G, temp35N-2); 180 µM in test [1] (template (N) = Pa, temp35N-2); 230 µM in test [1] (template (N) = Pa′, temp35N-2). Further, in test [1] (template (N) = T, temp35N-2), the Michaelis-Menten constant (Km) worked out at 480 µM. For the same compound, the Vmax is 0.52 % min^−1 in test [1] (template (N) = A, temp35N-2); 0.64 % min^−1 in test [1] (template (N) = C, temp35N-2); 0.78 % min^−1 in test [1] (template (N) = Ds, temp35N-1); 0.58 % min^−1 in test [1] (template (N) = G, temp35N-2); 12 % min^−1 in test [1] (template (N) = Pa, temp35N-2); 13 % min^−1 in test [1] (template (N) = Pa′, temp35N-2). For the same compound, in test [1] (template (N) = T, temp35N-2), the Vmax was 1.7 % min^−1. For the same compound, in test [2], the “primer extension with KF exo+ on Ds-containing template” value is reported as “proceeded without being inhibited”. Moreover, the “primer extension after incorporation of the substrate” value in test [3] is given as “proceeded efficiently”.
For `CN(C)c1ccc2c(c1)Oc1cc(N(C)C)ccc1C21OC(=O)c2cc(C(=O)NCCCCCC(=O)NCC#Cc3cc(C=O)n([C@@H]4O[C@H](COP(=O)(O)OP(=O)(O)OP(=O)(O)O)[C@@H](O)[C@H]4O)c3)ccc21` [TAMRA-hx-PaTP, 1-(β-D-Ribofuranosyl)-4-[3-(6-(tetramethylrhodamine-5-carboxamido)hexanamido)-1-propynyl]pyrrole-2-carbaldehyde 5′-triphosphate], the “transcription efficiency compared to control with natural substrates alone” value on T7 RNA polymerase is 10%.
`O=Cc1cc(C#CCNC(=O)CCCCCNC(=O)c2ccc3c(c2)C(=O)OC32c3ccc(O)cc3Oc3cc(O)ccc32)cn1[C@@H]1O[C@H](COP(=O)(O)OP(=O)(O)OP(=O)(O)O)[C@@H](O)[C@H]1O` [FAM-hx-PaTP, 1-(β-D-Ribofuranosyl)-4-[3-(6-(fluorescein-5-carboxamido)hexanamido)-1-propynyl]pyrrole-2-carbaldehyde 5′-triphosphate]: the “transcription efficiency compared to control with natural substrates alone” value on T7 RNA polymerase is listed as 14%.
As to `NCCCCCC(=O)NCC#Cc1cc([N+](=O)[O-])n([C@H]2C[C@H](O)[C@@H](COP(=O)(O)OP(=O)(O)OP(=O)(O)O)O2)c1` [NH2-hx-dPnTP], the “incorporation into DNA through primer extension” value in test [4] is “incorporated into DNA opposite Ds in the template DNA”.
On the same count and under the same terms, in the case of `O=C(CCCCCNC(=O)c1ccc2c(c1)C(=O)OC21c2ccc(O)cc2Oc2cc(O)ccc21)NCC#Cc1cc([N+](=O)[O-])n([C@H]2C[C@H](O)[C@@H](COP(=O)(O)OP(=O)(O)OP(=O)(O)O)O2)c1` [FAM-hx-dPnTP, 1-(2-Deoxy-β-D-ribofuranosyl)-4-[3-[6-(fluorescein-5-carboxamido)hexanamido]-1-propynyl]-2-nitropyrrole 5′-triphosphate] it was “incorporated into DNA opposite Ds in the template DNA”.
`O=P(O)(O)OP(=O)(O)OP(=O)(O)OC[C@H]1O[C@@H](n2cnc3c(-c4cccs4)ccnc32)C[C@@H]1O` [dDsTP, 7-(2-Thienyl)-3-(2-deoxy-β-ribofuranosyl)-3H-imidazo[4,5-b]pyridine 5′-triphosphate]: the “Efficiency (Vmax/KM)” value is 3.6 × 10^4 % min^−1M^−1 in test [1] (template (N) = A, temp35N-2); 2.8 × 10^4 % min^−1M^−1 in test [1] (template (N) = C, temp35N-2); 2.0 × 10^5 % min^−1M^−1 in test [1] (template (N) = Ds, temp35N-1); 4.1 × 10^4 % min^−1M^−1 in test [1] (template (N) = G, temp35N-2); 1.1 × 10^4 % min^−1M^−1 in test [1] (template (N) = Pa, temp35N-2); 8.8 × 10^5 % min^−1M^−1 in test [1] (template (N) = Pa′, temp35N-2). For the same compound, the “Efficiency (Vmax/KM)” value in test [1] (template (N) = T, temp35N-2) is 8.7 × 10^4 % min^−1M^−1. The Km amounted to 33 µM in test [1] (template (N) = A, temp35N-2); 47 µM in test [1] (template (N) = C, temp35N-2); 8 µM in test [1] (template (N) = Ds, temp35N-1); 37 µM in test [1] (template (N) = G, temp35N-2); 26 µM in test [1] (template (N) = Pa, temp35N-2); 24 µM in test [1] (template (N) = Pa′, temp35N-2). Further, the Km in test [1] (template (N) = T, temp35N-2) was 45 µM. Also, the Vmax in test [1] (template (N) = A, temp35N-2) amounted to 1.2 % min^−1; in test [1] (template (N) = C, temp35N-2), 1.3 % min^−1; in test [1] (template (N) = Ds, temp35N-1), 1.6 % min^−1; in test [1] (template (N) = G, temp35N-2), 1.5 % min^−1; in test [1] (template (N) = Pa, temp35N-2) it was 28 % min^−1; in test [1] (template (N) = Pa′, temp35N-2), 21 % min^−1. Also, in test [1] (template (N) = T, temp35N-2), the Vmax was found to be 3.9 % min^−1. Further, the “primer extension with KF exo+ on Ds-containing template” value in test [2] was “inhibited”.
Regarding `Nc1ncnc2c1ncn2[C@H]1C[C@H](O)[C@@H](COP(=O)(O)OP(=O)(O)OP(N)(=O)O)O1` [dATPN, 6-Amino-9-(2-deoxy-β-D-ribofuranosyl)purine 5′-γ-amidotriphosphate], the “Efficiency (Vmax/KM)” value in test [1] (template (N) = C, temp35N-2) is recorded as 3.4 × 10^2 % min^−1M^−1; in test [1] (template (N) = Ds, temp35N-1), 3.2 × 10^2 % min^−1M^−1; in test [1] (template (N) = Pa, temp35N-2) it was 1.8 × 10^3 % min^−1M^−1; in test [1] (template (N) = Pa′, temp35N-2) it was 3.0 × 10^3 % min^−1M^−1; in test [1] (template (N) = T, temp35N-2), 2.5 × 10^5 % min^−1M^−1. Further, the Km in test [1] (template (N) = C, temp35N-2) is 590 µM; in test [1] (template (N) = Ds, temp35N-1), 150 µM; in test [1] (template (N) = Pa, temp35N-2) it was 1200 µM; in test [1] (template (N) = Pa′, temp35N-2) it was 800 µM; in test [1] (template (N) = T, temp35N-2) it was 13 µM. The Vmax in test [1] (template (N) = C, temp35N-2) was determined as 0.20 % min^−1; in test [1] (template (N) = Ds, temp35N-1), 0.048 % min^−1; in test [1] (template (N) = Pa, temp35N-2), 2.2 % min^−1; in test [1] (template (N) = Pa′, temp35N-2) it was 2.4 % min^−1; in test [1] (template (N) = T, temp35N-2), 3.2 % min^−1. Besides, the “extension reaction after misincorporation opposite template Pa, compared to dATP” value in test [3] (Lanes 4 and 5) is recorded as “significantly reduced efficiency”. Besides, the “primer extension after incorporation of the substrate” value in test [3] is on record as “proceeded efficiently”.
